Target: T1, NO synthase (Rattus norvegicus, UniProt P29476)
T1 construct: the tissue was broken down with a Polytron homogenizer for 1 min at 6,000 rpm; from tissue; host or cells: rat cerebellum, 20,000 g supernatant of homogenate
Test: HTS NO synthase assay
Assay type: biochemical
Details: enzyme preparation from rat cerebelli, [3H]arginine substrate
Method: This assay allows the determination of the percentage inhibition of NO synthase by a compound of formula I according to the invention by measurement of the NO synthase activity in the presence of the compound. In this procedure, NO synthase is mixed together with radioactively labelled arginine and the particular compound of formula I under suitable conditions. After interruption of the NO formation reaction at a given point in time, the amount of unreacted arginine is determined directly or indirectly. […]
In this HTS NO synthase assay, radioactive arginine is used as the substrate. […] With the aid of this procedure, the arginine substrate which remains is bonded to the cation exchanger, while the radioactive citrulline formed enzymatically is washed out quantitatively. After drying of the filter MTP and addition of scintillation liquid, the bound arginine can be counted on a scintillation counter. An NO synthase reaction which has not been inhibited is reflected in a low radioactivity. […] That is to say a high radioactivity is found on the filter. […]
The plate was then dried for 1 hour at 60° C. in a drying cabinet. […] After a waiting time of 1 hour, the plate was measured on a β-counter.

SMILES: Cc1ccn2c(N)c(-c3ccsc3)nc2c1 [Example 1, 7-Methyl-2-thiophen-3-yl-imidazo[1,2-a]pyridin-3-ylamine]
- inhibition at 10 µM: 89%
